Laboratory results reported in article PMC3402541, “Guanidylation and Tail Effects in Cationic Antimicrobial Lipopeptoids” (PLoS ONE, 2012).
Converted amounts (≈) assume the structure as drawn. “And” between values parts separate entries of the source, which are not always exact repeats. Equal values may be shown once.

Assays:
MSSE 81388 CANWARD 2008 = type: cell-based, methicillin-susceptible S. epidermidis; settings: 81388 CANWARD 2008, Mueller-Hinton broth, 24 hr, 37°C, without replication; for MIC MSSE in the presence of 4% bovine serum albumin: 4% BSA added, macrobroth dilution; for MIC MSSE: CLSI macrobroth dilution, 5 x 10^5 CFU/mL
In short: (§1)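 Minimum inhibitory concentrations come from CLSI macrobroth testing at 37°C for 24 hr, in cation-adjusted Mueller-Hinton broth inoculated at about 5 x 10^5 CFU/mL. Performed once.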

ovine erythrocytes = test: Haemolytic assay; type: cell-based, sheep; settings: ovine erythrocytes in Tris buffered saline, 30 minutes, absorbance of supernatant at 540 nm
In short: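 Washed sheep erythrocytes in Tris-buffered saline exposed to compound (50 μg/mL–1 mg/mL; final 4.08 x 10^8 cells/mL) for 30 min. After centrifugation, supernatant absorbance at 540 nm gave % haemolysis; 0.5% ammonium chloride as positive control.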

S.pneumoniae ATCC 49619 = type: cell-based, Streptococcus pneumoniae; settings: ATCC 49619, Mueller-Hinton broth, 24 hr, 37°C, without replication; for MIC S.pneumoniae in the presence of 4% bovine serum albumin: 4% BSA added, macrobroth dilution; for MIC S.pneumoniae: CLSI macrobroth dilution, 5 x 10^5 CFU/mL
In short: as §1

[1] = tested on: A. baumannii CAN-ICU 63169; type: cell-based, Acinetobacter baumannii; settings: CAN-ICU 63169, Mueller-Hinton broth, 24 hr, 37°C, without replication; for MIC A. baumannii in the presence of 4% bovine serum albumin: 4% BSA added, macrobroth dilution; for MIC A. baumannii: CLSI macrobroth dilution, 5 x 10^5 CFU/mL
In short: as §1

E.coli ATCC 25922 = type: cell-based, Escherichia coli; settings: ATCC 25922, Mueller-Hinton broth, 24 hr, 37°C, without replication; for MIC E.coli in the presence of 4% bovine serum albumin: 4% BSA added, macrobroth dilution; for MIC E.coli: CLSI macrobroth dilution, 5 x 10^5 CFU/mL
In short: as §1

E.coli CAN-ICU 61714 = type: cell-based, Escherichia coli; settings: CAN-ICU 61714, Mueller-Hinton broth, 24 hr, 37°C, without replication; for MIC E.coli in the presence of 4% bovine serum albumin: 4% BSA added, macrobroth dilution; for MIC E.coli: CLSI macrobroth dilution, 5 x 10^5 CFU/mL
In short: as §1

E.coli CAN-ICU 63074 = type: cell-based, Escherichia coli; settings: CAN-ICU 63074, Mueller-Hinton broth, 24 hr, 37°C, without replication; for MIC E.coli in the presence of 4% bovine serum albumin: 4% BSA added, macrobroth dilution; for MIC E.coli: CLSI macrobroth dilution, 5 x 10^5 CFU/mL
In short: as §1

K.pneumoniae ATCC 13883 = type: cell-based, Klebsiella pneumoniae; settings: ATCC 13883, Mueller-Hinton broth, 24 hr, 37°C, without replication; for MIC K.pneumoniae in the presence of 4% bovine serum albumin: 4% BSA added, macrobroth dilution; for MIC K.pneumoniae: CLSI macrobroth dilution, 5 x 10^5 CFU/mL
In short: as §1

P.aeruginosa ATCC 27853 = type: cell-based, Pseudomonas aeruginosa; settings: ATCC 27853, Mueller-Hinton broth, 24 hr, 37°C, without replication; for MIC P.aeruginosa in the presence of 4% bovine serum albumin: 4% BSA added, macrobroth dilution; for MIC P.aeruginosa: CLSI macrobroth dilution, 5 x 10^5 CFU/mL
In short: as §1

[2] = tested on: P.aeruginosa CAN-ICU 62308; type: cell-based, Pseudomonas aeruginosa; settings: CAN-ICU 62308, Mueller-Hinton broth, 24 hr, 37°C, without replication; for MIC P.aeruginosa in the presence of 4% bovine serum albumin: 4% BSA added, macrobroth dilution; for MIC P.aeruginosa: CLSI macrobroth dilution, 5 x 10^5 CFU/mL
In short: as §1

S.aureus ATCC 29213 = type: cell-based, Staphylococcus aureus; settings: ATCC 29213, Mueller-Hinton broth, 24 hr, 37°C, without replication; for MIC S.aureus in the presence of 4% bovine serum albumin: 4% BSA added, macrobroth dilution; for MIC S.aureus: CLSI macrobroth dilution, 5 x 10^5 CFU/mL
In short: as §1

MRSE CAN-ICU 61589 = type: cell-based, methicillin-resistant S. epidermidis; settings: CAN-ICU 61589, Mueller-Hinton broth, 24 hr, 37°C, without replication; for MIC MRSE in the presence of 4% bovine serum albumin: 4% BSA added, macrobroth dilution; for MIC MRSE: CLSI macrobroth dilution, 5 x 10^5 CFU/mL
In short: as §1

E. faecium ATCC 27270 = type: cell-based; settings: ATCC 27270, Mueller-Hinton broth, 24 hr, 37°C, without replication; for MIC E. faecium in the presence of 4% bovine serum albumin: 4% BSA added, macrobroth dilution; for MIC E. faecium: CLSI macrobroth dilution, 5 x 10^5 CFU/mL
In short: as §1

CCCCCCCCCCCCCCCC[N+](C)(C)C.[Cl-] [CTAC, Cetyltrimethylammonium chloride, reference compound]
MIC MSSE in the presence of 4% bovine serum albumin (MSSE 81388 CANWARD 2008): 16 µg/mL | MIC MSSE (MSSE 81388 CANWARD 2008): 0.5 µg/mL | Percent haemolysis at 100µg/mL of compound (ovine erythrocytes): 77% and 77.05% | MIC S.pneumoniae in the presence of 4% bovine serum albumin (S.pneumoniae ATCC 49619): 8 µg/mL | MIC S.pneumoniae (S.pneumoniae ATCC 49619): 2 µg/mL | MIC A. baumannii in the presence of 4% bovine serum albumin [1]: 512 µg/mL | MIC A. baumannii [1]: 32 µg/mL | MIC E.coli in the presence of 4% bovine serum albumin (E.coli ATCC 25922): 512 µg/mL | MIC E.coli (E.coli ATCC 25922): 16 µg/mL | MIC E.coli in the presence of 4% bovine serum albumin (E.coli CAN-ICU 61714): 512 µg/mL | MIC E.coli (E.coli CAN-ICU 61714): 32 µg/mL | MIC E.coli in the presence of 4% bovine serum albumin (E.coli CAN-ICU 63074): 512 µg/mL | MIC E.coli (E.coli CAN-ICU 63074): 16 µg/mL | MIC K.pneumoniae in the presence of 4% bovine serum albumin (K.pneumoniae ATCC 13883): 512 µg/mL | MIC K.pneumoniae (K.pneumoniae ATCC 13883): 16 µg/mL | MIC P.aeruginosa in the presence of 4% bovine serum albumin (P.aeruginosa ATCC 27853): >512 µg/mL | MIC P.aeruginosa (P.aeruginosa ATCC 27853): 128 µg/mL | MIC P.aeruginosa in the presence of 4% bovine serum albumin [2]: 512 µg/mL | MIC P.aeruginosa [2]: 64 µg/mL | MIC S.aureus in the presence of 4% bovine serum albumin (S.aureus ATCC 29213): 32 µg/mL | MIC S.aureus (S.aureus ATCC 29213): 1 µg/mL | MIC MRSE in the presence of 4% bovine serum albumin (MRSE CAN-ICU 61589): 128 µg/mL | MIC MRSE (MRSE CAN-ICU 61589): 2 µg/mL | MIC E. faecium in the presence of 4% bovine serum albumin (E. faecium ATCC 27270): 64 µg/mL | MIC E. faecium (E. faecium ATCC 27270): 0.5 µg/mL

NCCCCN(CC(N)=O)C(=O)CNC(=O)CN(CCCCN)C(=O)CCC(F)(F)C(F)(F)C(F)(F)C(F)(F)C(F)(F)C(F)(F)C(F)(F)C(F)(F)F [F11-NlysGNlys]
MIC MSSE in the presence of 4% bovine serum albumin (MSSE 81388 CANWARD 2008): 128 µg/mL | MIC MSSE (MSSE 81388 CANWARD 2008): 32 µg/mL (≈ 39.8 µM) | Percent haemolysis at 100µg/mL of compound (ovine erythrocytes): 4.84% | MIC S.pneumoniae in the presence of 4% bovine serum albumin (S.pneumoniae ATCC 49619): 512 µg/mL | MIC S.pneumoniae (S.pneumoniae ATCC 49619): 256 µg/mL (≈ 318 µM) | MIC A. baumannii in the presence of 4% bovine serum albumin [1]: >512 µg/mL | MIC A. baumannii [1]: >512 µg/mL | MIC E.coli in the presence of 4% bovine serum albumin (E.coli ATCC 25922): 512 µg/mL | MIC E.coli (E.coli ATCC 25922): 512 µg/mL (≈ 636 µM) | MIC E.coli in the presence of 4% bovine serum albumin (E.coli CAN-ICU 61714): 512 µg/mL | MIC E.coli (E.coli CAN-ICU 61714): 512 µg/mL (≈ 636 µM) | MIC E.coli in the presence of 4% bovine serum albumin (E.coli CAN-ICU 63074): >512 µg/mL | MIC E.coli (E.coli CAN-ICU 63074): 512 µg/mL (≈ 636 µM) | MIC K.pneumoniae in the presence of 4% bovine serum albumin (K.pneumoniae ATCC 13883): >512 µg/mL | MIC K.pneumoniae (K.pneumoniae ATCC 13883): >512 µg/mL | MIC P.aeruginosa in the presence of 4% bovine serum albumin (P.aeruginosa ATCC 27853): >512 µg/mL | MIC P.aeruginosa (P.aeruginosa ATCC 27853): 512 µg/mL (≈ 636 µM) | MIC P.aeruginosa in the presence of 4% bovine serum albumin [2]: >512 µg/mL | MIC P.aeruginosa [2]: 512 µg/mL (≈ 636 µM) | MIC S.aureus in the presence of 4% bovine serum albumin (S.aureus ATCC 29213): 256 µg/mL | MIC S.aureus (S.aureus ATCC 29213): 32 µg/mL (≈ 39.8 µM) | MIC MRSE in the presence of 4% bovine serum albumin (MRSE CAN-ICU 61589): 256 µg/mL | MIC MRSE (MRSE CAN-ICU 61589): 32 µg/mL (≈ 39.8 µM) | MIC E. faecium in the presence of 4% bovine serum albumin (E. faecium ATCC 27270): 256 µg/mL | MIC E. faecium (E. faecium ATCC 27270): 64 µg/mL (≈ 79.5 µM)

NCCCCN(CC(N)=O)C(=O)CN(CCCCN)C(=O)CN(CCCCN)C(=O)CCC(F)(F)C(F)(F)C(F)(F)C(F)(F)C(F)(F)C(F)(F)C(F)(F)C(F)(F)F [F11-NlysNlysNlys]
MIC MSSE in the presence of 4% bovine serum albumin (MSSE 81388 CANWARD 2008): 128 µg/mL | MIC MSSE (MSSE 81388 CANWARD 2008): 32 µg/mL (≈ 36.5 µM) | Percent haemolysis at 100µg/mL of compound (ovine erythrocytes): 8.13% | MIC S.pneumoniae in the presence of 4% bovine serum albumin (S.pneumoniae ATCC 49619): 512 µg/mL | MIC S.pneumoniae (S.pneumoniae ATCC 49619): 128 µg/mL (≈ 146 µM) | MIC A. baumannii in the presence of 4% bovine serum albumin [1]: >512 µg/mL | MIC A. baumannii [1]: >512 µg/mL | MIC E.coli in the presence of 4% bovine serum albumin (E.coli ATCC 25922): 256 µg/mL | MIC E.coli (E.coli ATCC 25922): 64 µg/mL (≈ 73.1 µM) | MIC E.coli in the presence of 4% bovine serum albumin (E.coli CAN-ICU 61714): 256 µg/mL | MIC E.coli (E.coli CAN-ICU 61714): 64 µg/mL (≈ 73.1 µM) | MIC E.coli in the presence of 4% bovine serum albumin (E.coli CAN-ICU 63074): 512 µg/mL | MIC E.coli (E.coli CAN-ICU 63074): 128 µg/mL (≈ 146 µM) | MIC K.pneumoniae in the presence of 4% bovine serum albumin (K.pneumoniae ATCC 13883): >512 µg/mL | MIC K.pneumoniae (K.pneumoniae ATCC 13883): >512 µg/mL | MIC P.aeruginosa in the presence of 4% bovine serum albumin (P.aeruginosa ATCC 27853): 512 µg/mL | MIC P.aeruginosa (P.aeruginosa ATCC 27853): 128 µg/mL (≈ 146 µM) | MIC P.aeruginosa in the presence of 4% bovine serum albumin [2]: 512 µg/mL | MIC P.aeruginosa [2]: 256 µg/mL (≈ 292 µM) | MIC S.aureus in the presence of 4% bovine serum albumin (S.aureus ATCC 29213): 128 µg/mL | MIC S.aureus (S.aureus ATCC 29213): 32 µg/mL (≈ 36.5 µM) | MIC MRSE in the presence of 4% bovine serum albumin (MRSE CAN-ICU 61589): 256 µg/mL | MIC MRSE (MRSE CAN-ICU 61589): 32 µg/mL (≈ 36.5 µM) | MIC E. faecium in the presence of 4% bovine serum albumin (E. faecium ATCC 27270): 256 µg/mL | MIC E. faecium (E. faecium ATCC 27270): 64 µg/mL (≈ 73.1 µM)
